Results reported in article PMC7217877, “N-AS-triggered SPMs are direct regulators of microglia in a model of Alzheimer’s disease” (Nature Communications, 2020).
Where “and” joins values, the source holds several entries; their conditions need not be identical. Equal entries are not always repeated.

Assays:
COX2 WT = molecular target: T1, COX2 WT (Homo sapiens, UniProt P35354); assay: in vitro [14C] acetylation assay of purified COX2; type: biochemical; conditions: purified COX2 + 14C-labelled acetyl donor, 2 h, 37 °C, scintillation counter, replicates, in cpm (unit assumed)
T1 construct: His (N); made in house
T1 sequence (P35354 18-604): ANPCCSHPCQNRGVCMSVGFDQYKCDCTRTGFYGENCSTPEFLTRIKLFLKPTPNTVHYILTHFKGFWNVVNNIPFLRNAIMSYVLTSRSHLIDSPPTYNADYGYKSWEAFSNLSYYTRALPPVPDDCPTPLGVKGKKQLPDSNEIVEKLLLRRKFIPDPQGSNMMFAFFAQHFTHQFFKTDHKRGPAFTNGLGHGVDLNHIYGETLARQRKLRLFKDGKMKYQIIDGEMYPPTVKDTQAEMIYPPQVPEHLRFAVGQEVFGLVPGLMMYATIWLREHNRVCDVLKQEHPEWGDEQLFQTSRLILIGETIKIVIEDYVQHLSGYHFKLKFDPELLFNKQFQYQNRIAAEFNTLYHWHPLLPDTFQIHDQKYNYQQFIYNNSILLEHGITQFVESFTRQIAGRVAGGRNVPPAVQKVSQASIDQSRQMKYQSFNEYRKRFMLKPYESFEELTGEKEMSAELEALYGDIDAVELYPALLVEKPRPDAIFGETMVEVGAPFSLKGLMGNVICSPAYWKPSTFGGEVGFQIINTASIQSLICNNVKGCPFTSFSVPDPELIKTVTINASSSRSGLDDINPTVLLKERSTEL

[1] = test system: immortalized human microglia; assay: LM-SPM profile of human microglia (LC-MS/MS, Supplementary Table 3, Fig 6d); type: cell-based; set-up: 15R-LxA4 / RvE1 / RvD1: unit not given here
neuron [2] = assay: western blotting for ac-S565 and total COX2 in primary cells; type: cell-based, C57BL/6 mice; conditions: replicates
neuron [3] = assay: quantification of 15R-LXA4, RvE1, RvD1 in primary cells (LC-MS/MS); type: cell-based, C57BL/6 mice; set-up: unit not given here; conditions: replicates
Method: Lipid mediators metabololipidomics were performed according to previously described procedures with minor modifications[4],[30]. To confirm the biosynthesis of lipid mediators by recombinant COX2 treated with N-AS or aspirin, 10 U of human recombinant COX2 (Cayman, 60122) was incubated in the presence of 500 μM aspirin (Sigma-Aldrich, A5376) or N-AS (Sigma-Aldrich, 01912) at 37 °C for 30 min. The enzyme was filtered with a Microcon column (Millipore) to remove unreacted aspirin or N-AS and was then resuspended in 0.1 M Tris-HCl (pH 8.0). Next, 500 μM phenol (Sigma-Aldrich) and 1 μM hematin-porcine (Sigma-Aldrich) were added immediately before incubation with 100 μM AA, EPA or DHA (Cayman) at 37 °C for 2 h, respectively. The mixtures were incubated with 30 U of human 5-LOX (Cayman, 60402) containing 2 mM CaCl2 (Sigma-Aldrich), 1 mM ATP (Amresco) and 5 μM 13-HpODE (Cayman) as activators. Also, to validate the importance of residue S565 for N-AS-acetylation of COX2 and production of SPMs, 10 U of the COX2 S565A mutant was used in the above-described method. In addition, to confirm SPM generation in neurons and microglia, these cells were treated with Aβ and sonicated in neuronal and glial culture medium. […] To evaluate the relationship of N-AS and SPM production in microglia, microglia were isolated from WT, APP/PS1, and APP/PS1 treated with N-AS mice at 9 months of age. The microglia were sonicated and resuspended in microglial culture medium. The supernatants were incubated with 100 μM AA, EPA, and DHA (Cayman) at 37 °C for 2 h. A 50 μl aliquot of the mixture from each cell lysate was added to a 250 μl aliquot of 1 ng ml^−1 of 15S-LXA4-d5 (internal standard, Cayman) methanol solution. After vortexing for 10 min and centrifuging at 15,974×g for 5 min, the supernatant was subjected to the analysis of the lipid mediators using an Agilent 6470 Triple Quad LC-MS/MS system (Agilent) coupled to an Agilent 1290 HPLC system. Chromatographic separation was achieved using a Synergi Polar RP (4 μm, 2.0 mm i.d. × 150 mm, Phenomenex). Analytes were eluted with a mobile phase consisting of water: formic acid (100:0.1 v/v) (phase A) and methanol: formic acid (100:0.1 v/v) (phase B) in gradient elution mode for 23 min a flow rate of 0.2 ml min^−1. The elution gradient was as follows: from 0 to 0.1 min the content of phase A was 37% and the content of phase A was decreased to 10% and maintained for 5.5 min. The content of phase A was increased back to 37% at 6.0 min and maintained for 23 min. Quantification was carried out using MRM in negative ionization mode and collision energy of 10–15 eV. The mass transition from Q1 to Q3 is shown in Supplementary Table 2. In this study, the peak areas for all components were automatically integrated using MassHunter B 06.00.
To confirm the generation and roles of N-AS in neurons, cells from E18 C57BL/6 mice were prepared as previously described. Cortices were dissected and then dissociated followed by incubation in papain (Worthington) at 37 °C for 15 min. Neurons were plated on poly-L-lysine-coated coverslips with neuronal culture medium, serum-free Neurobasal medium (Gibco) containing 2% B27 supplements (Gibco), 1 mM Glutamax supplement (Gibco), and 100 U ml^−1 streptomycin/ 100 U ml^−1 penicillin (Gibco) at 37 °C in a humidified atmosphere of 5% CO2. […] Primary astrocyte cultures were prepared from C57BL/6 mice as described previously. In brief, after removal of the meninges, postnatal day 7 (P7) mouse brain tissues were minced and incubated in a rocking water bath at 37 °C for 30 min in the presence of 0.25% trypsin-EDTA (Sigma-Aldrich). Enzyme-digested dissociated cells were triturated with astrocyte-specific medium (DMEM/F12 containing 10% FBS and 1% penicillin-streptomycin) and centrifuged at 155×g for 8 min. The pellet was resuspended in astrocyte-specific medium and passed through a 40-μm cell strainer. […]

[4] = human microglia, Aβ 50 µM +, sFig 6d

CC(=O)Oc1ccccc1C(=O)O [Aspirin, acetylsalicylic acid, reference compound] was tested, and the “C14 radioactivity of COX2, acetylation assay (Fig 1b)” value (COX2 WT; listed as C14 Aspirin) was 16445 and 14504 and 14566 and 16561 and 14595 and 14332 and 14859.

For CC(=O)SCCNC(=O)CCNC(=O)[C@H](O)C(C)(C)COP(=O)(O)OP(=O)(O)OC[C@H]1O[C@@H](n2cnc3c(N)ncnc32)[C@H](O)[C@@H]1OP(=O)(O)O [Acetyl-CoA, acetyl-CoA], the 15R-LxA4 [1, 4] was 29.8592 and 28.6097 and 30.6248 and 29.0936 and 30.1012, the RvD1 [1, 4] was 2.566 and 2.828 and 2.839 and 2.697 and 2.833 and 2.768 and the RvE1 [1, 4] was 14.9946 and 13.574 and 15.0361 and 14.2843 and 14.305. The “ac-S565, western blotting (Fig 3h)” value (neuron [2]; Ab 10mM + supplement) was 0.4974 and 0.4784 and 0.4801 and 0.5239, the “C14 radioactivity of COX2, acetylation assay (Fig 1b)” value (COX2 WT; listed as C14 Acetyl CoA) was 4565 and 4620 and 4766 and 3817 and the “15R-LxA4 (Fig 3i)” value (neuron [3]; Ab + supplement) was 0.02549 and 0.02793 and 0.0321 and 0.02233 and 0.02865 and 0.02722. For the same molecule, the “RvD1 (Fig 3i)” value (neuron [3]; Ab + supplement) was 0.01313 and 0.01214 and 0.01403 and 0.01264 and 0.01308 and 0.01333 and the “RvE1 (Fig 3i)” value (neuron [3]; Ab + supplement) was 0.01432 and 0.01422 and 0.01286 and 0.01427 and 0.01354 and 0.01357.

For CCCCCCCCCCCCC/C=C/[C@@H](O)[C@@H](N)CO [Sph, sphingosine], the “ac-S565, western blotting (Fig 3h)” value (neuron [2]; Ab 10mM + supplement) was 0.6309 and 0.6553 and 0.6332 and 0.656, the “15R-LxA4 (Fig 3i)” value (neuron [3]; Ab + supplement) was 0.02593 and 0.02461 and 0.02134 and 0.02662 and 0.02525 and 0.02398 and the “RvD1 (Fig 3i)” value (neuron [3]; Ab + supplement) was 0.01101 and 0.01211 and 0.01321 and 0.01156 and 0.01266 and 0.01239. For the same molecule, the “RvE1 (Fig 3i)” value (neuron [3]; Ab + supplement) was 0.01121 and 0.01127 and 0.01125 (2×) and 0.01124 and 0.01126.

With “Ab: Aβ 1–42 (Invitrogen, 03112) used to induce an AD environment in cells” the “11-HEPE in human microglia” value ([1]; Aβ 50 µM alone, mean±s.e.m.) was 490.2±2.4 ng/ml*106cell, the “11-HETE in human microglia” value ([1]; Aβ 50 µM alone, mean±s.e.m.) was 174.9±2.0 ng/ml*106cell and the “13-HDHA in human microglia” value ([1]; Aβ 50 µM alone, mean±s.e.m.) was 128.2±1.8 ng/ml*106cell. For the same molecule, the “15-HEPE in human microglia” value ([1]; Aβ 50 µM alone, mean±s.e.m.) was 272.1±7.3 ng/ml*106cell, the “15-HETE in human microglia” value ([1]; Aβ 50 µM alone, mean±s.e.m.) was 564.3±4.4 ng/ml*106cell and the “15R-LXA4 in human microglia” value ([1]; Aβ 50 µM alone, mean±s.e.m.) was 0.03±0.0 ng/ml*106cell. The “17-HDHA in human microglia” value ([1]; Aβ 50 µM alone, mean±s.e.m.) was 561.8±2.7 ng/ml*106cell, the “18-HEPE in human microglia” value ([1]; Aβ 50 µM alone, mean±s.e.m.) was 1515.3±10.4 ng/ml*106cell and the “PGE3/PGD3 in human microglia” value ([1]; Aβ 50 µM alone, mean±s.e.m.) was 163.9±2.5 ng/ml*106cell. The “PGH2/PGE2 in human microglia” value ([1]; Aβ 50 µM alone, mean±s.e.m.) was 78.7±0.8 ng/ml*106cell, the “RvD1 in human microglia” value ([1]; Aβ 50 µM alone, mean±s.e.m.) was 0.01±0.0 ng/ml*106cell and the “RvE1 in human microglia” value ([1]; Aβ 50 µM alone, mean±s.e.m.) was 0.01±0.0 ng/ml*106cell. The “ac-S565, western blotting (Fig 3h)” value (neuron [2]; Ab 10mM, no supplement) was 0.4287 and 0.5828 and 0.4634 and 0.6503, the “ac-S565 / total COX2, western blotting (Fig 3b)” value (neuron [2]; Ab 10mM) was 0.7374 and 0.6807 and 0.7791 and 0.4902 and 0.709 and 0.7299 and the “15R-LxA4 (Fig 3i)” value (neuron [3]; Ab, no supplement) was 0.02346 and 0.02267 and 0.02051 and 0.02367 and 0.02325 and 0.02209. The “RvD1 (Fig 3i)” value (neuron [3]; Ab, no supplement) was 0.01315 and 0.01104 and 0.01107 and 0.0121 and 0.01106 and 0.01158 and the “RvE1 (Fig 3i)” value (neuron [3]; Ab, no supplement) was 0.0152 and 0.01424 and 0.01723 and 0.01472 and 0.01573 and 0.01598.

B1: Sphk1: purified sphingosine kinase1 enzyme (Cayman, 10348) supplemented to cell lysates (protein, UniProt Q9NYA1 1-384, looked up)
Sphingosine kinase 1: MDPAGGPRGVLPRPCRVLVLLNPRGGKGKALQLFRSHVQPLLAEAEISFTLMLTERRNHARELVRSEELGRWDALVVMSGDGLMHEVVNGLMERPDWETAIQKPLCSLPAGSGNALAASLNHYAGYEQVTNEDLLTNCTLLLCRRLLSPMNLLSLHTASGLRLFSVLSLAWGFIADVDLESEKYRRLGEMRFTLGTFLRLAALRTYRGRLAYLPVGRVGSKTPASPVVVQQGPVDAHLVPLEEPVPSHWTVVPDEDFVLVLALLHSHLGSEMFAAPMGRCAAGVMHLFYVRAGVSRAMLLRLFLAMEKGRHMEYECPYLVYVPVVAFRLEPKDGKGVFAVDGELMVSEAVQGQVHPNYFWMVSGCVEPPPSWKPQQMPPPEEPL
With B1 the “ac-S565, western blotting (Fig 3h)” value (neuron [2]; Ab 10mM + supplement) was 1.248 and 1.156 and 1.263 and 1.199, the “15R-LxA4 (Fig 3i)” value (neuron [3]; Ab + supplement) was 3.266 and 3.3679 and 3.485 and 3.078 and 3.454 and 3.282 and the “RvD1 (Fig 3i)” value (neuron [3]; Ab + supplement) was 0.5366 and 0.8616 and 0.7359 and 0.6991 and 0.7987 and 0.7175. For the same molecule, the “RvE1 (Fig 3i)” value (neuron [3]; Ab + supplement) was 3.815 and 3.7466 and 3.98 and 3.781 and 3.863 and 3.88.
